Measured values: article PMC12040169 (PLOS Biology, 2025)

Tests used:
[1] = system: T1, C. trachomatis L2/434/Bu expressing GFP (CTL2-GFP); assay: microbe, parasite or virus in culture; set-up: C. trachomatis total inclusion area by high-content imaging, normalised to DMSO; conditions: Chlamydia trachomatis, HeLa, 28.5 h; total inclusion area; read-out: % of control remaining
T1 construct: L2/434/Bu GFP intracellular growth in HeLa cells
Procedure, shortened: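 A 36,785-compound library was screened using bulk GFP and resorufin fluorescence, followed by Hoechst staining and high-content imaging of inclusions (GFP) and host nuclei. Inclusion area and number served as growth proxies and nuclei counts as a viability proxy. MICs were calculated from these readouts.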

[2] = in vitro; set-up: Viability of infected HeLa host cells, resazurin conversion, bulk resorufin fluorescence relative to DMSO; conditions: human, hela cells; bulk resorufin, mean of 2
[3] = system: T2, CTL2-GFP (C. trachomatis L2/434/Bu, GFP-expressing); assay: microbe, parasite or virus in culture; set-up: Intracellular C. trachomatis growth in HeLa cells, bulk GFP fluorescence relative to DMSO; conditions: Chlamydia trachomatis, HeLa, 28.5 h; bulk GFP, mean of 2; read-out: % of control remaining
T2 construct: L2/434/Bu, GFP-expressing
Experimental: MICs were calculated as described above.

[4] = in vitro; conditions: human, hela cells, % viability

SMILES | activity at 1 µM [1] [%] | activity at 5 µM [1] [%] | activity at 10 µM [1] [%] | viability at 28.5 h, 1 µM [2] [%] | viability at 28.5 h, 5 µM [2] [%] | viability at 28.5 h, 10 µM [2] [%] | activity at 1 µM [3] [%] | activity at 5 µM [3] [%] | activity at 10 µM [3] [%] | viability at 28.5 h, 10 µM [4] [%]
COc1cccc(C(=O)N2CCC(Cc3ccc(-c4cccc(C)c4)cc3)(C(N)=O)CC2)c1 [CBK285779] | 113 | 114 | 62.9 | 96.4 | 98.8 | 90.2 | 119 | 104 | 49.9 | 115
CC(Cc1nc(-c2nccn2C)cs1)n1cc(Cl)cn1 (centres unmarked) [CBK304114] | 97.2 | 15.4 | 7.1 | 108 | 100 | 105 | 79.3 | 21 | 7.42 | 90.1
Cc1noc(NS(=O)(=O)c2ccc(NC(=O)COc3ccccc3Br)cc2)c1C [CBK263918] | 91.6 | 88.5 | 31 | 96.5 | 96.5 | 95.3 | 97.7 | 57.6 | 25.5 | 89.4
Nc1nc(F)nc2c1ncn2[C@H]1C[C@@H](O)[C@@H](CO)O1 [CBK201337] | 50.4 | 4.65 | 1.29 | 93.5 | 79.2 | 72.6 | 52.9 | 11.5 | 14.4 | 77.6
CC(N)C(=O)NC1CCN(c2nc3c(cc2F)c(=O)c(C(=O)O)cn3C23CC(C2)C3)C1 (centres unmarked) [CBK016632] | 11.5 | 1.17 | 0.494 | 90.2 | 89.5 | 87 | 15.3 | 3.24 | 7.52 | 80.5
FC(F)(F)CCN1CCC2(CC1)NCCc1c2[nH]c2ccc(Cl)cc12 [CBK039331] | 56.9 | 20.2 | 7.6 | 98.2 | 105 | 108 | 123 | 46.8 | 30.2 | 91
COC(=O)N1CCc2ccc(N3C[C@H](CNC(C)=O)OC3=O)cc2CC1 [CBK022485] | 128 | 35.2 | 7.61 | 88.3 | 85.8 | 90.5 | 136 | 44.2 | 12.6 | 79.8
O=S(=O)(Nc1nccs1)c1ccc(Nc2ncnc3ccccc23)cc1 [CBK269487C] | 140 | 53.6 | 28.6 | 93.3 | 99 | 86.3 | 141 | 72.9 | 35 | 93.8
OC(COc1ccc(Br)cc1)CN1CCCN(c2nc3ccc(Cl)cc3s2)CC1 (centres unmarked) [CBK074643] | 121 | 82.4 | 11.3 | 86.1 | 88.1 | 88 | 137 | 114 | 43.8 | 93.5
Clc1ccc2nc(-c3ccccn3)[nH]c2c1 [CBK000116] | 70.7 | 9.19 | 1.69 | 111 | 104 | 104 | 75 | 13.8 | 1.74 | 83.8
CC(NC(=O)N(Cc1ccccc1C(F)(F)F)CC(C)(C)CN)c1cccc2ccccc12 (centres unmarked) [CBK002422C] | 78.4 | 41 | 12.2 | 90.1 | 94.1 | 101 | 112 | 51.5 | 34.5 | 91.9
CC(=O)NC[C@H]1CN(c2ccc3c(c2)CCSC3)C(=O)O1 [CBK018505] | 129 | 28.5 | 9.34 | 95.5 | 101 | 101 | 142 | 29.2 | 12.6 | 99
O=C(Nc1nccs1)c1cc(C2CCN(C(=O)CC3CCCCC3)C2)nc2ccccc12 (centres unmarked) [CBK285586] | 115 | 119 | 48.9 | 92.6 | 93 | 93.3 | 134 | 122 | 35.7 | 116
O=C(Nc1ccccc1C(=O)Nc1nnc(C(F)(F)F)s1)c1ccccc1Cl [CBK076900] | 113 | 64.7 | 63.4 | 94.7 | 97 | 84.6 | 130 | 90.8 | 45.1 | 76.9
CCCc1cc(C(=O)N2CCN(c3nccc(OC)n3)CC2)[nH]n1 [CBK304898] | 127 | 120 | 43.6 | 89.4 | 93.7 | 89.2 | 148 | 151 | 156 | 87
O=C(CSCc1c(F)cccc1Cl)Nc1ccc(S(=O)(=O)N2CCCCC2)cc1 [CBK268034] | 90.3 | 35.6 | 13.2 | 91.9 | 104 | 101 | 82.4 | 35.6 | 27.1 | 90.4
CCOc1cc(/C=N/Nc2nnc(C)n2N)ccc1O [CBK027460] | 115 | 81 | 31.7 | 93.3 | 88.7 | 87.4 | 109 | 57.8 | 26 | 88.9
Cc1noc(NS(=O)(=O)c2ccc(NC(=O)CCN3C(=O)c4ccccc4C3=O)cc2)c1C [CBK264091] | 99.8 | 67.5 | 32.7 | 92.8 | 92.8 | 91.3 | 106 | 40.3 | 28.9 | 
O=S(=O)(Nc1ncccn1)c1ccc(NC(=S)Nc2ccc3c(c2)OCO3)cc1 [CBK267046] | 88.8 | 21.2 | 18.3 | 114 | 121 | 119 | 54.3 | 10.7 | 12.9 | 
O=C(CCN1CCCCC1)Nc1ccc2c(=O)n3c(nc2c1)/C(=C/c1ccccc1)CC3 [CBK017786] | 109 | 20.7 | 10.4 | 91.6 | 90.4 | 92.6 | 142 | 56.7 | 26.3 | 
O=C(NCc1cccnc1)/C(=C/c1ccc(-c2cccc(Cl)c2)o1)S(=O)(=O)c1ccccc1 [CBK264508] | 78.5 | 44 | 10.3 | 107 | 100 | 97.8 | 101 | 45 | 8.14 | 
CC(=O)NC[C@H]1CN(c2ccc(-c3nnc(C(C)O)s3)c(F)c2)C(=O)O1 (some centres unmarked) [CBK017968] | 46.6 | 0.644 | 0.166 | 91.4 | 90.3 | 90.8 | 51.4 | 2.06 | 5.93 | 
CN(C)CCNc1nc(-c2ccc(Cl)cc2)nc2ccccc12 [CBK263942] | 64.3 | 38.6 | 5.67 | 94.8 | 97 | 94.4 | 111 | 85.1 | 47.9 | 
